According to patent US11472838B2, “Inhibitors of blood coagulation factor XIII” (Zedira GmbH, priority 2018, dated 2022):
Like-named read-outs stand apart in the source and are kept apart here. *1 amine or outer side, *2 acyl side, *3 side chain or, on linkers, in order; H or OH if unused. Where a SMILES comes first, the peptide text is derived from it. [ ]: non-standard residue; d: D form. The star is where a group is joined. ξ: configuration not given here. Benzoyl(2-COOH,5-NO2) = O=C(O)c1ccc([N+](=O)[O-])cc1C(=O)*; Pro(3R,4S-CMe2) = CC1(C)[C@@H]2[C@@H](C(=O)O)NC[C@@H]21; Benzoyl(2-COOH-4,5-Cl2) = O=C(O)c1cc(Cl)c(Cl)cc1C(=O)*; Nle(5E-ene,6-CO2Et) = CCOC(=O)/C=C/CC[C@H](N)C(=O)O; Isonicotinoyl(3-COOH) = O=C(O)c1cnccc1C(=O)*; X1 = COC(=O)/C=C/CC[C@H](N[*:1])C(=O)[*:2]; X8 = NC(=O)/C=C/CC[C@H](N[*:1])C(=O)[*:2]; Pro(4-methylene) = C=C1CN[C@H](C(=O)O)C1; X2 = O=C(O)c1cc([N+](=O)[O-])ccc1C(=O)*; Pro(4-oxo) = O=C1CN[C@H](C(=O)O)C1; Thiophene2carbonyl = O=C(c1cccs1)*; Thr(3ξ) = CC(O)[C@H](N)C(=O)O; Chg = N[C@H](C(=O)O)C1CCCCC1; Tle = CC(C)(C)[C@H](N)C(=O)O; X4 = O=C(O)c1cncc(C(=O)*)c1; Pip = O=C(O)[C@@H]1CCCCN1; Cbz = O=C(OCc1ccccc1)*

Key:
FXIII = FXIII (Homo sapiens (Human), UniProt P00488); experiment: Inhibitory activity against FXIII (isopeptidase assay), Tables 3 and 4; format: biochemical;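 also: FXIIIa activity read with a peptide substrate derived from the α2-antiplasmin N-terminal dodecapeptide, FXIII activated beforehand at room temperature, inhibitor-free wells with DMSO buffer as control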
in vitro = experiment: in vitro
Experimental: Further, the stability of compounds in plasma was determined as prerequisite for drug-likeness. Briefly, after spiking the chemical entities, the plasma was incubated at 37° C. At certain time points (e.g. at 15 and 120 minutes), 3 vol. cold MeOH were added to extract the compounds. After centrifugation, the supernatant was analyzed by HPLC. The half life was calculated based on the respective calibration curve.

TG2 = TG2 (Homo sapiens (Human), UniProt P21980); experiment: Inhibitory activity against TG2 (isopeptidase assay), Tables 3 and 4; format: biochemical; conditions: for Selectivity: TG2 versus FXIII
[1] = isopeptidase assay, Table 3, read-out: IC50 [nM] FXIII
[2] = isopeptidase assay, Table 3, read-out: IC50 [nM] TG2

TG2, sequence (P21980 whole entry): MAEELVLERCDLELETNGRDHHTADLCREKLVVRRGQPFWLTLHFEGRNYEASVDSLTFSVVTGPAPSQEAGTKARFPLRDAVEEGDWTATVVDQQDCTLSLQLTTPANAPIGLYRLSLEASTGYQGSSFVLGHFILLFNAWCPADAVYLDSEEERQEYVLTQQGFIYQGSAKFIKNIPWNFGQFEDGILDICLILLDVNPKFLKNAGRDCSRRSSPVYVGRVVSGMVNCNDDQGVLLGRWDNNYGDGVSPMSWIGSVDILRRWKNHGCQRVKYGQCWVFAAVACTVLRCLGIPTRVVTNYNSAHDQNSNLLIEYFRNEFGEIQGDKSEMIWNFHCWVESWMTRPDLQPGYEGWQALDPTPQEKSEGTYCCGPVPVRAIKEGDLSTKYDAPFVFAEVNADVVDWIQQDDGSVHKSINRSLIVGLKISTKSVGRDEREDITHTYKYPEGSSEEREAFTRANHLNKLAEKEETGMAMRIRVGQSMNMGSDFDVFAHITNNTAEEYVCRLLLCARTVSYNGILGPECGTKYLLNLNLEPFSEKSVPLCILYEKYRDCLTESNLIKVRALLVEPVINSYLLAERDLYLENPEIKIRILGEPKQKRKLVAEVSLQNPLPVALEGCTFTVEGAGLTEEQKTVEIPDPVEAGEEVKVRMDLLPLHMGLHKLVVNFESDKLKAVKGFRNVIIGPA
FXIII, sequence (P00488 39-732): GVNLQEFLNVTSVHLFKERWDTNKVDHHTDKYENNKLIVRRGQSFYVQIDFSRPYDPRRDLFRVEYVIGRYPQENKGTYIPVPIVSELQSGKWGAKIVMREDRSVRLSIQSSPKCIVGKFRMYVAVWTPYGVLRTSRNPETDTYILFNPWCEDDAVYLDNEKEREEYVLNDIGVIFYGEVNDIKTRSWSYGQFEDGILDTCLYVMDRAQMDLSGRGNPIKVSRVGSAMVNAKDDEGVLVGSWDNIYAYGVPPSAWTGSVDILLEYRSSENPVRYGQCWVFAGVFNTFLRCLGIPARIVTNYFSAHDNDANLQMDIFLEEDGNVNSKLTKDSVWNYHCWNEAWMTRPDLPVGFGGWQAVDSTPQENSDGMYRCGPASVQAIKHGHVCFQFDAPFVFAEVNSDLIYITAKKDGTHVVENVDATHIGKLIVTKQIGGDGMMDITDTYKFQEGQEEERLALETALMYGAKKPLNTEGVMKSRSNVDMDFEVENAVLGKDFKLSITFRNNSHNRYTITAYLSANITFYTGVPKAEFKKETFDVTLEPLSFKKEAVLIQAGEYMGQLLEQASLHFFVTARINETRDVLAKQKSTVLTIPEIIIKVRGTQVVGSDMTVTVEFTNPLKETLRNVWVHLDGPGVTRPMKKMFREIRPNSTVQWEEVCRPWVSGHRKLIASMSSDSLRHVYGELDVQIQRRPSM

IC50 (FXIII; [1]) [nM]	IC50 (TG2; [2]) [nM]	IC50 (FXIII; Table 4, read-out: FXIII IC50) [nM]	Selectivity (TG2; Table 4)	IC50 (TG2; Table 4, read-out: TG2 IC50) [nM]	Structure (SMILES)	recovery at 2 h (in vitro) [%]	further results
24	32	–	–	–	COC(=O)/C=C/CC[C@H](NC(=O)c1cc(Cl)c(Cl)cc1C(=O)O)C(=O)N[C@H](C(=O)N1C[C@H]2[C@@H]([C@H]1C(=O)N[C@H](C(=O)N[C@H](C(N)=O)C1CCCCC1)C1CCCCC1)C2(C)C)C(C)(C)C [Compound 29] ({Benzoyl(2-COOH-4,5-Cl2)}-[X1][Tle][Pro(3R,4S-CMe2)][Chg][Chg]-NH2)	> 75	Selectivity (TG2; isopeptidase assay, Table 3): 1.3
27	64	–	–	–	COC(=O)/C=C/CC[C@H](NC(=O)c1cncc(C(=O)O)c1)C(=O)N[C@H](C(=O)N1CCC[C@H]1C(=O)N[C@H](C(=O)N[C@H](C(N)=O)C1CCCCC1)C1CCCCC1)C(C)(C)C [Compound 27] (X4-[X1][Tle]P[Chg][Chg]-NH2)	> 75	Selectivity (TG2; isopeptidase assay, Table 3): 2.4
> 10000	48	–	–	–	CCOC(=O)/C=C/CC[C@H](NC(=O)OCc1ccccc1)C(=O)N[C@H](C(=O)N1CCCC[C@H]1C(=O)N[C@@H](CC(C)C)C(=O)OC)C(C)C [Ref. 6, reference compound] (Cbz-[Nle(5E-ene,6-CO2Et)]V[Pip]L-OMe)	–	–
–	–	3650	0.01	36	CCOC(=O)/C=C/CC[C@H](NC(=O)OCc1ccccc1)C(=O)N[C@H](C(=O)N1CCC[C@H]1C(=O)N[C@@H](CC(C)C)C(=O)N[C@H](C(N)=O)C1CCCCC1)C(C)C [Ref. 08, reference compound] (Cbz-[Nle(5E-ene,6-CO2Et)]VPL[Chg]-NH2)	–	–
–	–	6770	0.05	345	CCOC(=O)/C=C/CC[C@H](NC(=O)OCc1ccccc1)C(=O)N[C@H](C(=O)N1CCC[C@H]1C(=O)N[C@@H](CC(C)C)C(=O)N[C@H](C(N)=O)C1CCCCC1)C1CCCCC1 [Ref. 12, reference compound] (Cbz-[Nle(5E-ene,6-CO2Et)][Chg]PL[Chg]-NH2)	–	–
–	–	8480	0.04	381	COC(=O)/C=C/CC[C@H](NC(=O)[C@H](CC(N)=O)NC(C)=O)C(=O)N[C@@H](CCC(=O)O)C(=O)N[C@@H](CCC(N)=O)C(=O)N[C@H](C(=O)N[C@@H](CO)C(=O)N1CCC[C@H]1C(=O)N[C@@H](CC(C)C)C(=O)N[C@H](C(=O)O)C(C)O)C(C)C (some centres unmarked) [Ref. 20, reference compound] (Ac-N[X1]EQVSPL[Thr(3ξ)]-OH)	–	–
–	–	4980	0.07	370	COC(=O)/C=C/CC[C@H](NC(=O)[C@H](CC(N)=O)NC(C)=O)C(=O)N[C@@H](CCC(=O)O)C(=O)N[C@@H](CCC(N)=O)C(=O)N[C@H](C(=O)N[C@@H](CO)C(=O)N1CCC[C@H]1C(=O)N[C@@H](CC(C)C)C(=O)N[C@H](C(=O)N[C@@H](CC(C)C)C(=O)O)C(C)O)C(C)C (stereo partly drawn) [Ref. 19, reference compound] (Ac-N[X1]EQVSPL[Thr(3ξ)]L-OH)	–	–
–	–	–	–	–	C=C1C[C@@H](C(=O)N[C@@H](CC(C)C)C(=O)N[C@H](C(N)=O)C2CCCCC2)N(C(=O)[C@@H](NC(=O)[C@H](CC/C=C/C(=O)OCC)NC(=O)c2cc([N+](=O)[O-])ccc2C(=O)O)C(C)(C)C)C1 [Compound 42b] ({Benzoyl(2-COOH,5-NO2)}-[Nle(5E-ene,6-CO2Et)][Tle][Pro(4-methylene)]L[Chg]-NH2)	> 75	–
–	–	> 10	–	–	CCC(CC)CNC(=O)Cn1cccc(NC(=O)[C@H](CC/C=C/C(=O)OC)NC(=O)c2cncn2C)c1=O [Ref. 25]	–	–
–	–	–	–	–	C=C1C[C@@H](C(=O)N[C@@H](CC(C)C)C(=O)N[C@H](C(N)=O)C2CCCCC2)N(C(=O)[C@@H](NC(=O)[C@H](CC/C=C/C(=O)OCC)NC(=O)c2ccc([N+](=O)[O-])cc2C(=O)O)C(C)(C)C)C1 [Compound 42a] (X2-[Nle(5E-ene,6-CO2Et)][Tle][Pro(4-methylene)]L[Chg]-NH2)	> 75	–

Structure (SMILES)	IC50 (FXIII; [1]) [nM]	IC50 (TG2; [2]) [nM]	IC50 (FXIII; Table 4, read-out: FXIII IC50) [nM]	Selectivity (TG2; Table 4)	IC50 (TG2; Table 4, read-out: TG2 IC50) [nM]	recovery at 2 h (in vitro) [%]	further results
CC(C)(C)[C@H](NC(=O)[C@H](CC/C=C/C(N)=O)NC(=O)c1ccncc1C(=O)O)C(=O)N1CC(=O)C[C@H]1C(=O)N[C@H](C(=O)N[C@H](C(N)=O)C1CCCCC1)C1CCCCC1 [15a/b] ({Isonicotinoyl(3-COOH)}-[X8][Tle][Pro(4-oxo)][Chg][Chg]-NH2)	69	483	–	–	–	–	recovery in plasma determined by HPLC (in vitro; plasma, 37° C., over a period of 2 hours): > 75%; Selectivity (TG2; isopeptidase assay, Table 3): 7.0
CCOC(=O)/C=C/CC[C@H](NC(=O)c1cccs1)C(=O)N[C@@H](CCC(N)=O)C(=O)N1CCC[C@H]1C(=O)N[C@@H](CC(C)C)C(=O)N[C@H](C(N)=O)C1CCCCC1 [Ref. 11, reference compound] (Thiophene2carbonyl-[Nle(5E-ene,6-CO2Et)]QPL[Chg]-NH2)	–	–	5360	0.05	253	–	–
